Test results from patent US20090304692A1, “TRIAZINE COMPOUNDS AS PI3 KINASE AND MTOR INHIBITORS” (Wyeth, priority 2008, published 2009).
Where two headings read alike, the source gives them in different places.

What was measured:
[1] = tested on: human breast MDA-MB-361 tumor cell line; test: In vitro cell culture growth assay (MTS), MDA-MB-361; assay type: cell-based; conditions: read-out: IC50 MDA-MB-361
[2] = tested on: human prostate PC3-mm2 tumor cell line; test: In vitro cell culture growth assay (MTS), PC3-mm2; assay type: cell-based; conditions: three days after drug treatment, read-out: IC50 PC3-mm2
[3] = biological target: PI3K-γ (Homo sapiens, UniProt P48736); test: PI3K-gamma fluorescence polarization assay; conditions: read-out: IC50 PI3Kγ
Sequence of PI3K-γ (P48736 whole entry, species assumed): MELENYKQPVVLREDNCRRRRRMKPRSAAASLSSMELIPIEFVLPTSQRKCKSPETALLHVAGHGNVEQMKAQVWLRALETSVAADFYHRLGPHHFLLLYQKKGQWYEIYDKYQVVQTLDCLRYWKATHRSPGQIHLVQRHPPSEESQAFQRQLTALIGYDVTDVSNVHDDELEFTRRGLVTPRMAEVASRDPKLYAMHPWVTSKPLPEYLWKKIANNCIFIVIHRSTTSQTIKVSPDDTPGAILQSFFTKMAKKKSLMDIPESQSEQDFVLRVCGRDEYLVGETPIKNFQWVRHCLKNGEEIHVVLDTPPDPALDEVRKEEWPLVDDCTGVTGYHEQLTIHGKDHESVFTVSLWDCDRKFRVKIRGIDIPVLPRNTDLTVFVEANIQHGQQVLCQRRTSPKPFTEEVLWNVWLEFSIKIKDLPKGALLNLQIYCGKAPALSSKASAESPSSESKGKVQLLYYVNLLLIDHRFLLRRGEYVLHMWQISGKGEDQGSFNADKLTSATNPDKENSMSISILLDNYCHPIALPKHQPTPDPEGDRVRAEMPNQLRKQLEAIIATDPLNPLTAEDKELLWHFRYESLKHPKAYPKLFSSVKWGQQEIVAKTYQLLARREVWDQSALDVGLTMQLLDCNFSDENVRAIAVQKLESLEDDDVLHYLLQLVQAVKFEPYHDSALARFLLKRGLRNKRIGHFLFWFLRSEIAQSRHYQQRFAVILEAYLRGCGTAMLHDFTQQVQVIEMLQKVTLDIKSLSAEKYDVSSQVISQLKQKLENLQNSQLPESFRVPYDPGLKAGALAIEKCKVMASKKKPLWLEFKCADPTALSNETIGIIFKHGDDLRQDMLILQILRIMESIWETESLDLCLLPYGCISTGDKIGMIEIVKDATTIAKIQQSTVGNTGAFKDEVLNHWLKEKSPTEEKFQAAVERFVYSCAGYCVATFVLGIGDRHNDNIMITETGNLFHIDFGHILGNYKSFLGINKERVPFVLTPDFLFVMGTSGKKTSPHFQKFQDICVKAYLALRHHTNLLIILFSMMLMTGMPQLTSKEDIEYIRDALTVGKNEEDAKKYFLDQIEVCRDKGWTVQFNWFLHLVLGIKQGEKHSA

[4] = biological target: PI3K-α (Homo sapiens, UniProt P42336); test: PI3K-alpha fluorescence polarization assay; conditions: read-out: IC50 PI3Kα
Sequence of PI3K-α (P42336 whole entry, species assumed): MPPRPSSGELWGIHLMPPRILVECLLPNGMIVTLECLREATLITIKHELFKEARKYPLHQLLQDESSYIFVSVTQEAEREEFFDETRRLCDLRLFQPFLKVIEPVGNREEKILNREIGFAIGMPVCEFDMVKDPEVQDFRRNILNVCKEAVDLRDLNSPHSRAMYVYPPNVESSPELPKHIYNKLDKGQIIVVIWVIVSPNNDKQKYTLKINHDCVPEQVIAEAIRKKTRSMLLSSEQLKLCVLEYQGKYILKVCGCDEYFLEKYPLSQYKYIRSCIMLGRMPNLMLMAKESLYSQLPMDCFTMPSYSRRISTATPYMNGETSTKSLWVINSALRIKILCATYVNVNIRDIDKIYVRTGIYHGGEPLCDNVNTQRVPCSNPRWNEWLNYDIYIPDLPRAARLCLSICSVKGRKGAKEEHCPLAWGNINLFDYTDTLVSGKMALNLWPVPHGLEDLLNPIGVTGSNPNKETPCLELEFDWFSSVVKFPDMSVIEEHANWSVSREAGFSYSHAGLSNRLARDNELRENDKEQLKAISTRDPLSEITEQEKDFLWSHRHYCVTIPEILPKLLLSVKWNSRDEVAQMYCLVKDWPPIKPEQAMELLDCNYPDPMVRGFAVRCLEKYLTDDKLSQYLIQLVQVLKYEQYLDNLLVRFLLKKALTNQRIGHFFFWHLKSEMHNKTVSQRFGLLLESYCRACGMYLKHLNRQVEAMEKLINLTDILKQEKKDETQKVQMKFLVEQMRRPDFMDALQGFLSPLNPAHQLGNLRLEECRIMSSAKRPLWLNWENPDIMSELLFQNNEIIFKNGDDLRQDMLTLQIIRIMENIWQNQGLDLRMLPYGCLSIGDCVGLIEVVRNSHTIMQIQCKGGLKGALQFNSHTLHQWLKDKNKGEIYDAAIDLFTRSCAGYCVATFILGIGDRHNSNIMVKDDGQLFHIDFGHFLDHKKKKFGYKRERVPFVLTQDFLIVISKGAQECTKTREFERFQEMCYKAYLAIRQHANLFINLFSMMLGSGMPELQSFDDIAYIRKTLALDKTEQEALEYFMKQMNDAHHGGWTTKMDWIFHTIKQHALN
Sequence of PI3K-α (P27986 whole entry partner, species assumed): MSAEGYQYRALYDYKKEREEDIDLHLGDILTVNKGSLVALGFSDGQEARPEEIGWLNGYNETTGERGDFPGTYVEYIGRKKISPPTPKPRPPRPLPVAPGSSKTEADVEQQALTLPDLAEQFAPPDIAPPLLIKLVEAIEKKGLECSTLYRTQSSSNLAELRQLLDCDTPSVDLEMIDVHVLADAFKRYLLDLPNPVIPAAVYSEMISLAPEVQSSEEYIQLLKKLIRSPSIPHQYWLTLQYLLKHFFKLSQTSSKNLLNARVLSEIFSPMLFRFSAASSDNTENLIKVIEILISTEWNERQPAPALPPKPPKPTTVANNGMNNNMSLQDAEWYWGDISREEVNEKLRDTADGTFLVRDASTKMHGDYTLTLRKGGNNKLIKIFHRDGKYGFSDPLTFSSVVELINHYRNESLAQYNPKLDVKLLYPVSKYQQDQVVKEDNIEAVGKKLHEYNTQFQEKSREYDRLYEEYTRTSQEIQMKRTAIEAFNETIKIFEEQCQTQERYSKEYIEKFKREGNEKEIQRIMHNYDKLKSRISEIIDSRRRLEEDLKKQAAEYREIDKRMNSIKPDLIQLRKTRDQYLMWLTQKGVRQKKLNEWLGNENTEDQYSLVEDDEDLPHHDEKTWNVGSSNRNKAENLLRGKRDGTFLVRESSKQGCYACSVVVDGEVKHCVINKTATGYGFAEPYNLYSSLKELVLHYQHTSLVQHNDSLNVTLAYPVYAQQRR

[5] = MTS cell growth assay, three days after drug treatment, MDA-MB-361 cells
[6] = MTS cell growth assay, PC3-mm2 cells
[7] = Homo sapiens, MDA-MB-361, 72 h, MTS cell growth assay, three days after drug treatment
[8] = Homo sapiens, PC3MM2, 72 h, MTS cell growth assay
[9] = Homo sapiens, 72 h, MTS cell growth assay, three days after drug treatment, MDA-MB-361 cells
[10] = Homo sapiens, PC3MM2, 72 h, MTS cell growth assay, PC3-mm2 cells

Compound	IC50 [3]	IC50 [4]	IC50 [2, 10]	also measured
1-(4-(4,6-dimorpholino-1,3,5-triazin-2-yl)phenyl)-3-(4-(2-(pyridin-2-yl)acetyl)phenyl)urea [Example 78]	23 nM			IC50 ([1]; MTS cell growth assay, three days after drug treatment): 68 nM; IC50 ([2]; MTS cell growth assay): 31 nM
1-(4-{[4-(1-methylethyl)piperazin-1-yl]carbonyl}phenyl)-3-[4-(4-morpholin-4-yl-6-piperidin-1-yl-1,3,5-triazin-2-yl)phenyl]urea [Example 595]	58.5 nM			IC50 [1, 5]: 43 nM; IC50 [2, 6]: 193 nM
4-yl-6-(3-oxa-8-azabicyclo[3.2.1]oct-8-yl)-1,3,5-triazin-2-yl]phenyl}urea [Example 518]	6.5 nM	0.9 nM		IC50 [1, 5]: 4 nM; IC50 [2, 6]: 24 nM
4-{[(4-{4,6-bis[(3S)-3-methylmorpholin-4-yl]-1,3,5-triazin-2-yl}phenyl)carbamoyl]amino}-N-(2-pyrrolidin-1-ylethyl)benzamide [Example 635]	378 nM	22 nM		IC50 [1, 5]: 26 nM; IC50 [2, 6]: 106 nM
C[C@H]1COCCN1c1nc(-c2ccc(NC(=O)Nc3ccc(CO)cc3)cc2)nc(N2CCOCC2)n1 [Example 91, 1-[4-(2-hydroxymethyl)phenyl]-3-(4-{4-[(3S)-3-methylmorpholin-4-yl]-6-morpholin-4-yl-1,3,5-triazin-2-yl}phenyl)urea]	73 nM	6 nM		IC50 [1, 7]: 25 nM; IC50 [2, 8]: 1570 nM
CN1CCN(C(=O)c2ccc(NC(=O)Nc3ccc(-c4nc(N5CCOCC5)[nH]c(=O)n4)cc3)cc2)CC1 [Example 826, 1-{4-[(4-methylpiperazin-1-yl)carbonyl]phenyl}-3-[4-(6-morpholin-4-yl-4-oxo-4,5-dihydro-1,3,5-triazin-2-yl)phenyl]urea]		15 nM		IC50 ([1]; Homo sapiens, MDA-MB-361, 72 h): > 1000 nM; IC50 ([2]; Homo sapiens, PC3MM2, 72 h, PC3-mm2 cells, MTS): > 1000 nM

Second part, led by results:

IC50 [3]	IC50 [4]	IC50 [2, 10]	Compound	also measured
200 nM	2 nM		CC(O)c1nc(-c2ccc(NC(=O)Nc3ccncc3)cc2)nc(N2CCOCC2)n1 (stereo not drawn) [Example 223, 1-{4-[4-(1-hydroxyethyl)-6-morpholin-4-yl-1,3,5-triazin-2-yl]phenyl}-3-pyridin-4-ylurea]	IC50 [1, 7]: 187 nM; IC50 [2, 8]: 229 nM
89 nM	43 nM	< 31 nM	O=C(Nc1ccncc1)Nc1ccc(-c2nc(-c3ccccc3)nc(N3CCOCC3)n2)cc1 [Example 346, 1-[4-(4-morpholin-4-yl-6-phenyl-1,3,5-triazin-2-yl)phenyl]-3-pyridin-4-ylurea]	IC50 [1, 9]: < 31 nM; IC50 ([4]; listed as 537): 43.5 nM
1.8 nM	0.5 nM	12.5 nM	CCN1CCN(C(=O)Nc2ccc(NC(=O)Nc3ccc(-c4nc(N5CCOCC5)nc(N5CCOCC5)n4)cc3)cc2)CC1 [Example 503, N-[4-({[4-(4,6-dimorpholin-4-yl-1,3,5-triazin-2-yl)phenyl]carbamoyl}amino)phenyl]-4-ethylpiperazine-1-carboxamide]	IC50 [1, 9]: 7.5 nM
108 nM	21 nM	168 nM	C[C@H]1COCCN1c1nc(-c2ccc(NC(=O)Nc3ccc(C(=O)N4CCCC4)cc3)cc2)nc(N2CCOC[C@@H]2C)n1 [Example 571, 1-(4-{4,6-bis[(3S)-3-methylmorpholin-4-yl]-1,3,5-triazin-2-yl}phenyl)-3-[4-(pyrrolidin-1-ylcarbonyl)phenyl]urea]	IC50 ([1]; Homo sapiens, MDA-MB-361, 72 h, MTS cell growth assay, three days after drug treatment, MDA-MB-361 cells): 90 nM
15 nM	0.9 nM	56 nM	CN(C)CCNC(=O)c1ccc(NC(=O)Nc2ccc(-c3nc(N4CCCOCC4)nc(N4CCOCC4)n3)cc2)cc1 [Example 572, N-[2-(dimethylamino)ethyl]-4-[({4-[4-morpholin-4-yl-6-(1,4-oxazepan-4-yl)-1,3,5-triazin-2-yl]phenyl}carbamoyl)amino]benzamide]	IC50 [1, 9]: 13 nM
